Values belong to the molecule of their own block, whether it stands above or below them.
Key:
RPS6KA6 KD2 (human) = RPS6KA6 KD2 (human) (UniProt Q9UK32); experiment: KINOMEscan competition binding; settings: compound 10.0 µM
DAPK3 (human) = DAPK3 (human) (UniProt O43293); experiment: KINOMEscan competition binding; settings: compound 10.0 µM
HIPK1 (human) = HIPK1 (human) (UniProt Q86Z02); experiment: KINOMEscan competition binding; settings: compound 10.0 µM
CSNK2A2 (human) = CSNK2A2 (human) (UniProt P19784); experiment: KINOMEscan competition binding; settings: compound 10.0 µM
[1] = target: TYK2 JH2 pseudokinase (human) (UniProt P29597); experiment: KINOMEscan competition binding; settings: compound 10.0 µM
RIOK2 (human) = RIOK2 (human) (UniProt Q9BVS4); experiment: KINOMEscan competition binding; settings: compound 10.0 µM
PIK3CB (human) = PIK3CB (human) (UniProt P42338); experiment: KINOMEscan competition binding; settings: compound 10.0 µM
STK17A (human) = STK17A (human) (UniProt Q9UEE5); experiment: KINOMEscan competition binding; settings: compound 10.0 µM
MYLK4 (human) = MYLK4 (human) (UniProt Q86YV6); experiment: KINOMEscan competition binding; settings: compound 10.0 µM
CLK2 (human) = CLK2 (human) (UniProt P49760); experiment: KINOMEscan competition binding; settings: compound 10.0 µM
STK17B (human) = STK17B (human) (UniProt O94768); experiment: KINOMEscan competition binding; settings: compound 10.0 µM
PLK4 (human) = PLK4 (human) (UniProt O00444); experiment: KINOMEscan competition binding; settings: compound 10.0 µM
DYRK1B (human) = DYRK1B (human) (UniProt Q9Y463); experiment: KINOMEscan competition binding; settings: compound 10.0 µM
NUAK2 (human) = NUAK2 (human) (UniProt Q9H093); experiment: KINOMEscan competition binding; settings: compound 10.0 µM
ZAP70 (human) = ZAP70 (human) (UniProt P43403); experiment: KINOMEscan competition binding; settings: compound 10.0 µM
TTK (human) = TTK (human) (UniProt P33981); experiment: KINOMEscan competition binding; settings: compound 10.0 µM
GAK (human) = GAK (human) (UniProt O14976); experiment: KINOMEscan competition binding; settings: compound 10.0 µM
MAP2K4 (human) = MAP2K4 (human) (UniProt P45985); experiment: KINOMEscan competition binding; settings: compound 10.0 µM
CLK1 (human) = CLK1 (human) (UniProt P49759); experiment: KINOMEscan competition binding; settings: compound 10.0 µM
TAOK1 (human) = TAOK1 (human) (UniProt Q7L7X3); experiment: KINOMEscan competition binding; settings: compound 10.0 µM
PAK2 (human) = PAK2 (human) (UniProt Q13177); experiment: KINOMEscan competition binding; settings: compound 10.0 µM
[2] = target: JAK1 JH2 pseudokinase (human) (UniProt P23458); experiment: KINOMEscan competition binding; settings: compound 10.0 µM
ACVR2B (human) = ACVR2B (human) (UniProt Q13705); experiment: KINOMEscan competition binding; settings: compound 10.0 µM
MAPK8 (human) = MAPK8 (human) (UniProt P45983); experiment: KINOMEscan competition binding; settings: compound 10.0 µM
MKNK2 (human) = MKNK2 (human) (UniProt Q9HBH9); experiment: KINOMEscan competition binding; settings: compound 10.0 µM
RPS6KA1 KD2 (human) = RPS6KA1 KD2 (human) (UniProt Q15418); experiment: KINOMEscan competition binding; settings: compound 10.0 µM
PIM1 (human) [3] = target: PIM1 (human) (UniProt P11309); experiment: KINOMEscan competition binding; settings: compound 10.0 µM
BTK (human) = BTK (human) (UniProt Q06187); experiment: KINOMEscan competition binding; settings: compound 10.0 µM
CSNK1D (human) = CSNK1D (human) (UniProt P48730); experiment: KINOMEscan competition binding; settings: compound 10.0 µM
DAPK2 (human) = DAPK2 (human) (UniProt Q9UIK4); experiment: KINOMEscan competition binding; settings: compound 10.0 µM
TGFBR2 (human) = TGFBR2 (human) (UniProt P37173); experiment: KINOMEscan competition binding; settings: compound 10.0 µM
CDK7 (human) = CDK7 (human) (UniProt P50613); experiment: KINOMEscan competition binding; settings: compound 10.0 µM
PIM2 (human) [4] = target: PIM2 (human) (UniProt Q9P1W9); experiment: KINOMEscan competition binding; settings: compound 10.0 µM
DAPK1 (human) = DAPK1 (human) (UniProt P53355); experiment: KINOMEscan competition binding; settings: compound 10.0 µM
TLK1 (human) = TLK1 (human) (UniProt Q9UKI8); experiment: KINOMEscan competition binding; settings: compound 10.0 µM
MAP2K3 (human) = MAP2K3 (human) (UniProt P46734); experiment: KINOMEscan competition binding; settings: compound 10.0 µM
MAPK10 (human) = MAPK10 (human) (UniProt P53779); experiment: KINOMEscan competition binding; settings: compound 10.0 µM
CLK4 (human) = CLK4 (human) (UniProt Q9HAZ1); experiment: KINOMEscan competition binding; settings: compound 10.0 µM
MAP3K7 (human) = MAP3K7 (human) (UniProt O43318); experiment: KINOMEscan competition binding; settings: compound 10.0 µM
STK24 (human) = STK24 (human) (UniProt Q9Y6E0); experiment: KINOMEscan competition binding; settings: compound 10.0 µM
CSNK2A1 (human) = CSNK2A1 (human) (UniProt P68400); experiment: KINOMEscan competition binding; settings: compound 10.0 µM
GSK3A (human) = GSK3A (human) (UniProt P49840); experiment: KINOMEscan competition binding; settings: compound 10.0 µM
RPS6KA2 KD2 (human) = RPS6KA2 KD2 (human) (UniProt Q15349); experiment: KINOMEscan competition binding; settings: compound 10.0 µM
ACVR2A (human) = ACVR2A (human) (UniProt P27037); experiment: KINOMEscan competition binding; settings: compound 10.0 µM
PIK3CD (human) = PIK3CD (human) (UniProt O00329); experiment: KINOMEscan competition binding; settings: compound 10.0 µM
PIM3 (human) = PIM3 (human) (UniProt Q86V86); experiment: KINOMEscan competition binding; settings: compound 10.0 µM
PIM1 (human) [5] = target: PIM1 (human) (UniProt P11309); experiment: SelectScreen, TR FRET
PIM2 (human) [6] = target: PIM2 (human) (UniProt Q9P1W9); experiment: SelectScreen, TR FRET
SRPK3 (human) = SRPK3 (human) (UniProt Q9UPE1); experiment: KINOMEscan competition binding; settings: compound 10.0 µM
RPS6KA4 KD2 (human) = RPS6KA4 KD2 (human) (UniProt O75676); experiment: KINOMEscan competition binding; settings: compound 10.0 µM
TAOK3 (human) = TAOK3 (human) (UniProt Q9H2K8); experiment: KINOMEscan competition binding; settings: compound 10.0 µM
CSNK1G2 (human) = CSNK1G2 (human) (UniProt P78368); experiment: KINOMEscan competition binding; settings: compound 10.0 µM
BMP2K (human) = BMP2K (human) (UniProt Q9NSY1); experiment: KINOMEscan competition binding; settings: compound 10.0 µM
PLK1 (human) = PLK1 (human) (UniProt P53350); experiment: KINOMEscan competition binding; settings: compound 10.0 µM
SRPK1 (human) = SRPK1 (human) (UniProt Q96SB4); experiment: KINOMEscan competition binding; settings: compound 10.0 µM
PDGFRB (human) = PDGFRB (human) (UniProt P09619); experiment: KINOMEscan competition binding; settings: compound 10.0 µM
[7] = system: EIF2AK4 KD2 (human), Q9P2K8 [S808G]; experiment: KINOMEscan competition binding; settings: compound 10.0 µM
RPS6KA5 KD2 (human) = RPS6KA5 KD2 (human) (UniProt O75582); experiment: KINOMEscan competition binding; settings: compound 10.0 µM
PIK3CG (human) = PIK3CG (human) (UniProt P48736); experiment: KINOMEscan competition binding; settings: compound 10.0 µM
AAK1 (human) = AAK1 (human) (UniProt Q2M2I8); experiment: KINOMEscan competition binding; settings: compound 10.0 µM
RIOK3 (human) = RIOK3 (human) (UniProt O14730); experiment: KINOMEscan competition binding; settings: compound 10.0 µM
RIOK1 (human) = RIOK1 (human) (UniProt Q9BRS2); experiment: KINOMEscan competition binding; settings: compound 10.0 µM

PIM1 (human), sequence (P11309 whole entry, looked up): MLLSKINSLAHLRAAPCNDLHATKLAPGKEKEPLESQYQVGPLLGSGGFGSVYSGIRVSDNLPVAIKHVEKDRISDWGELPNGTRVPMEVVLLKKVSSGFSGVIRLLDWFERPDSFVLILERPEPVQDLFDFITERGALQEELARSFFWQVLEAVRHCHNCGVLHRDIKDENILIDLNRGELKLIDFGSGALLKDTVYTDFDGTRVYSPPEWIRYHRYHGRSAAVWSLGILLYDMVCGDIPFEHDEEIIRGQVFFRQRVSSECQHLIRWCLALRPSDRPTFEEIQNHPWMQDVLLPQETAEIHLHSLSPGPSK
PIM2 (human), sequence (Q9P1W9 whole entry, looked up): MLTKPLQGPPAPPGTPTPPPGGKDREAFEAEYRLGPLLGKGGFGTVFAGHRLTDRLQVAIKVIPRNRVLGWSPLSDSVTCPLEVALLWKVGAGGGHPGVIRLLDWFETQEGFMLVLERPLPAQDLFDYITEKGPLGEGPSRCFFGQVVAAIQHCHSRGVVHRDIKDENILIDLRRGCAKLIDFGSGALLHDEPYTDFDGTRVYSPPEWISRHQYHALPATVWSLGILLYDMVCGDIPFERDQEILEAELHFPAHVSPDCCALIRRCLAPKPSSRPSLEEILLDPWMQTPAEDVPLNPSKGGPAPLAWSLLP
CLK1 (human), sequence (P49759 whole entry, looked up): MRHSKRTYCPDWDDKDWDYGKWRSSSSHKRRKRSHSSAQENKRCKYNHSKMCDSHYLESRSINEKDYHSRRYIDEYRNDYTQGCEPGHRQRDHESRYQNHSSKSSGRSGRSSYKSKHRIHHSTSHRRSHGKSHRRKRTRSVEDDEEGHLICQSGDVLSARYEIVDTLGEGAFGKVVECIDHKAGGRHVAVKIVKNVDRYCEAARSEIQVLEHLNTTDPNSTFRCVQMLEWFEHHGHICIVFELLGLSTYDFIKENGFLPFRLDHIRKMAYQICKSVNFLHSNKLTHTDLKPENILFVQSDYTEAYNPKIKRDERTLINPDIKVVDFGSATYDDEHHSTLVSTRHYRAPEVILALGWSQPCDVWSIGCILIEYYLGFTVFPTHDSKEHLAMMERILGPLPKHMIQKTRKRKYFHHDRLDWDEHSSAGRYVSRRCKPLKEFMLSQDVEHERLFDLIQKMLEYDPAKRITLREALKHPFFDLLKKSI
DAPK1 (human), sequence (P53355 whole entry, looked up): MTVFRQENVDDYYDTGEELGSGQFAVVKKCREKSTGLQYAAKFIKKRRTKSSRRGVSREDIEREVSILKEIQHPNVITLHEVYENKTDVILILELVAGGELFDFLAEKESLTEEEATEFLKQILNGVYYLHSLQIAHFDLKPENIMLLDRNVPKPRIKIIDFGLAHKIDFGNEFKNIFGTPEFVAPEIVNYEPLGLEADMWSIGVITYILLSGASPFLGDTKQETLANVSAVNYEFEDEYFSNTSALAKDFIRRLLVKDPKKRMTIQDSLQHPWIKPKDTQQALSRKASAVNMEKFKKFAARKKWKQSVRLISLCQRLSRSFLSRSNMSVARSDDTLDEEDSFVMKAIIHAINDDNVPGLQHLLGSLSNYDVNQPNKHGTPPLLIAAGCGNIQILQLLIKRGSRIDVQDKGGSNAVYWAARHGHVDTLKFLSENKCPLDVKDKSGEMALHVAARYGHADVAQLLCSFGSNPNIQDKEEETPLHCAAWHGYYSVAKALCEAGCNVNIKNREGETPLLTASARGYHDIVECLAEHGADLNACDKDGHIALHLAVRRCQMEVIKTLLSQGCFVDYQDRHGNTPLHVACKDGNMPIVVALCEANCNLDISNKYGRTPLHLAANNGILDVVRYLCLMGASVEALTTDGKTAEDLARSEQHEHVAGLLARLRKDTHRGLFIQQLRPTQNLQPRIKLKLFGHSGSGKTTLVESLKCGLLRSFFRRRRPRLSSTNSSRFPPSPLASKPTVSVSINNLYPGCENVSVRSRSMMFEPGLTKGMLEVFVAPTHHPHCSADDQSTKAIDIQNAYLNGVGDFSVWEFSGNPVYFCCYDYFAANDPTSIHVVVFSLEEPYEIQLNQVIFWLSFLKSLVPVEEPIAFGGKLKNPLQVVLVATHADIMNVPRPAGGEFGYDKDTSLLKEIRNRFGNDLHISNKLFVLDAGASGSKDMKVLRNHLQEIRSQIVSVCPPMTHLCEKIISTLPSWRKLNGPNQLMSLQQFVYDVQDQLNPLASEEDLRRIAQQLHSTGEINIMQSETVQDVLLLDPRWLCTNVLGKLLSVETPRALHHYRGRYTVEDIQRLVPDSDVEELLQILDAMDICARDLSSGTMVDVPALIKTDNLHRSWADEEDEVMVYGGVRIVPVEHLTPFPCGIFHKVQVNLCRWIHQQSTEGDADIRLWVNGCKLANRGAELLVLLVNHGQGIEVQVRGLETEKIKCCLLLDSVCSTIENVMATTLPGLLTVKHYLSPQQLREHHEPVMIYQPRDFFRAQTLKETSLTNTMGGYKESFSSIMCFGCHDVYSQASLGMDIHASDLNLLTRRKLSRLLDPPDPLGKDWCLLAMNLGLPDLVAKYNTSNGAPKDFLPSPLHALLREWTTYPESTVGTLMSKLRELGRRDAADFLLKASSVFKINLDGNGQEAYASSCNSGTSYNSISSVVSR
DAPK2 (human), sequence (Q9UIK4 whole entry, looked up): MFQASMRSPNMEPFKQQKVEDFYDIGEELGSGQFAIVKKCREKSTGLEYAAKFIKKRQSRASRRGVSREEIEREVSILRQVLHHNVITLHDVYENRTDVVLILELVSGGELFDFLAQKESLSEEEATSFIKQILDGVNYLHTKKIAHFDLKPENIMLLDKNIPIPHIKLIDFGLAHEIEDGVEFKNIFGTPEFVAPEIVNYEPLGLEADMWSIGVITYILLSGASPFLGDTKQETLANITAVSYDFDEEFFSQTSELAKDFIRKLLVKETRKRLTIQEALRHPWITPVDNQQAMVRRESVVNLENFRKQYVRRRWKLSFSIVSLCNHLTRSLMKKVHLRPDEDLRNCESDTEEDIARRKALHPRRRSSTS
CSNK2A2 (human), sequence (P19784 whole entry, looked up): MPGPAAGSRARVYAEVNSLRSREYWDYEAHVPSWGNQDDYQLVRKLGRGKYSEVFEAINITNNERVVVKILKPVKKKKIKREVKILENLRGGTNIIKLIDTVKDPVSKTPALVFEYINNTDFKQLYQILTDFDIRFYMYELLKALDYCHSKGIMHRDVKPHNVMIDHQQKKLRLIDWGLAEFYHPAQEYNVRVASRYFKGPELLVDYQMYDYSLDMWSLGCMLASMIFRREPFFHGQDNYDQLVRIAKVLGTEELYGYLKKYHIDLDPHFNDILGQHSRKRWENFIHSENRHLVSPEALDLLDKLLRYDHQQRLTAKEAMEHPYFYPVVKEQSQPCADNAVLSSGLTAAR
PIK3CB (human), sequence (P42338 whole entry, looked up): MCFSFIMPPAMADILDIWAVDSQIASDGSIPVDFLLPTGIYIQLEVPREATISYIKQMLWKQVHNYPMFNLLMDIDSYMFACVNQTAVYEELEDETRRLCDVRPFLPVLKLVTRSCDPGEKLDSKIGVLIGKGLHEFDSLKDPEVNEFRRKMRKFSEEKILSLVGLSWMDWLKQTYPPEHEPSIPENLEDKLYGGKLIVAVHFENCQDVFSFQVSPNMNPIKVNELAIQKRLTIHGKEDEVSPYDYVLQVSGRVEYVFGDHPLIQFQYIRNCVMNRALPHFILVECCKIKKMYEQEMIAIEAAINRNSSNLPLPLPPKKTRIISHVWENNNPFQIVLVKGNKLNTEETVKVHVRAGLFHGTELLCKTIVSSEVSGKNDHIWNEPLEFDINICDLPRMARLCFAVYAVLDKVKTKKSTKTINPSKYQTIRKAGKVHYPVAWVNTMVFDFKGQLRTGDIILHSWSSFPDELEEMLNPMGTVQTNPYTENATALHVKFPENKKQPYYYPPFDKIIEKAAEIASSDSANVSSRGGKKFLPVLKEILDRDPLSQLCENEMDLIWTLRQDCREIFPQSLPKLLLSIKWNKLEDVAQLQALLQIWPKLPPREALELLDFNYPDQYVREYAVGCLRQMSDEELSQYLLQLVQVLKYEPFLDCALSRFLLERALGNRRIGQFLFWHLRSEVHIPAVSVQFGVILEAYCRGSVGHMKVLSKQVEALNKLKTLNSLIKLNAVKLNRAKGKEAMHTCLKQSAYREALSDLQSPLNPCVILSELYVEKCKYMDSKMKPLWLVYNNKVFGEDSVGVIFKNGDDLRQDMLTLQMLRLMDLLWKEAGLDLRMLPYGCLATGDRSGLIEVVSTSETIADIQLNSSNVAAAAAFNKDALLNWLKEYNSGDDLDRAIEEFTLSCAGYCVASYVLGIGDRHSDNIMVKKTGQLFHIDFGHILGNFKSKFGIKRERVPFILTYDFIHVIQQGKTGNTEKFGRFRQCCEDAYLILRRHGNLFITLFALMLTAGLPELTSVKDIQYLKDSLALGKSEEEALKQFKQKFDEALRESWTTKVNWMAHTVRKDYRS
STK17B (human), sequence (O94768 whole entry, looked up): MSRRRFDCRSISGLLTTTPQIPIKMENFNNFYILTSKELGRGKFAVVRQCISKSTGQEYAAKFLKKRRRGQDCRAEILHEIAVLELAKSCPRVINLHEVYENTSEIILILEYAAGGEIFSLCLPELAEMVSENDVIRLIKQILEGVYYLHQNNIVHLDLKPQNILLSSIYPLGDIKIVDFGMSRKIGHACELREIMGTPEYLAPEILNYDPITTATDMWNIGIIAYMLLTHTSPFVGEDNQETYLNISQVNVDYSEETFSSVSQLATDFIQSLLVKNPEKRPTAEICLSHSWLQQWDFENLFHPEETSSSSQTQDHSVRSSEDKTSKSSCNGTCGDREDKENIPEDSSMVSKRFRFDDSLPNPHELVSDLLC

kinase still bound, per cent of control (RPS6KA6 KD2 (human)): 30%
kinase still bound, per cent of control (DAPK3 (human)): 16%
kinase still bound, per cent of control (HIPK1 (human)): 0.45%
kinase still bound, per cent of control (CSNK2A2 (human)): 24%
kinase still bound, per cent of control [1]: 2.2%
kinase still bound, per cent of control (RIOK2 (human)): 5.5%
kinase still bound, per cent of control (PIK3CB (human)): 4.5%
kinase still bound, per cent of control (STK17A (human)): 0.05%
kinase still bound, per cent of control (MYLK4 (human)): 32%
kinase still bound, per cent of control (CLK2 (human)): 7.7%
kinase still bound, per cent of control (STK17B (human)): 0.4%
kinase still bound, per cent of control (PLK4 (human)): 18%
kinase still bound, per cent of control (DYRK1B (human)): 7.4%
kinase still bound, per cent of control (NUAK2 (human)): 21%
kinase still bound, per cent of control (ZAP70 (human)): 8.2%
kinase still bound, per cent of control (TTK (human)): 21%
kinase still bound, per cent of control (GAK (human)): 5%
kinase still bound, per cent of control (MAP2K4 (human)): 3.9%
kinase still bound, per cent of control (CLK1 (human)): 17%
kinase still bound, per cent of control (TAOK1 (human)): 6%
kinase still bound, per cent of control (PAK2 (human)): 32%
kinase still bound, per cent of control [2]: 30%
kinase still bound, per cent of control (ACVR2B (human)): 20%
kinase still bound, per cent of control (MAPK8 (human)): 14%
kinase still bound, per cent of control (MKNK2 (human)): 11%
kinase still bound, per cent of control (RPS6KA1 KD2 (human)): 17%
kinase still bound, per cent of control (PIM1 (human) [3]): 4.9%
kinase still bound, per cent of control (BTK (human)): 18%
kinase still bound, per cent of control (CSNK1D (human)): 30%
kinase still bound, per cent of control (DAPK2 (human)): 12%
kinase still bound, per cent of control (TGFBR2 (human)): 5.8%
kinase still bound, per cent of control (CDK7 (human)): 20%
kinase still bound, per cent of control (PIM2 (human) [4]): 0.45%
kinase still bound, per cent of control (DAPK1 (human)): 4.4%
kinase still bound, per cent of control (TLK1 (human)): 22%
kinase still bound, per cent of control (MAP2K3 (human)): 17%
kinase still bound, per cent of control (MAPK10 (human)): 31%
kinase still bound, per cent of control (CLK4 (human)): 20%
kinase still bound, per cent of control (MAP3K7 (human)): 34%
kinase still bound, per cent of control (STK24 (human)): 27%
kinase still bound, per cent of control (CSNK2A1 (human)): 26%
kinase still bound, per cent of control (GSK3A (human)): 20%
kinase still bound, per cent of control (RPS6KA2 KD2 (human)): 24%
kinase still bound, per cent of control (ACVR2A (human)): 25%
kinase still bound, per cent of control (PIK3CD (human)): 23%
kinase still bound, per cent of control (PIM3 (human)): 4%
IC50 (PIM1 (human) [5]): 0.961 µM
IC50 (PIM2 (human) [6]): 1.77 µM
Structure (SMILES): N=C1NC(=O)/C(=C/c2ccc(-c3cccc4cc[nH]c34)o2)S1

kinase still bound, per cent of control (SRPK3 (human)): 28%
kinase still bound, per cent of control (DAPK3 (human)): 4.8%
kinase still bound, per cent of control (HIPK1 (human)): 9%
kinase still bound, per cent of control (RPS6KA4 KD2 (human)): 0.95%
kinase still bound, per cent of control (CSNK2A2 (human)): 32%
kinase still bound, per cent of control (TAOK3 (human)): 26%
kinase still bound, per cent of control (PIK3CB (human)): 2.4%
kinase still bound, per cent of control (CSNK1G2 (human)): 24%
kinase still bound, per cent of control (STK17A (human)): 6.3%
kinase still bound, per cent of control (CLK2 (human)): 0.45%
kinase still bound, per cent of control (STK17B (human)): 0.6%
kinase still bound, per cent of control (BMP2K (human)): 22%
kinase still bound, per cent of control (ZAP70 (human)): 11%
kinase still bound, per cent of control (PLK1 (human)): 17%
kinase still bound, per cent of control (SRPK1 (human)): 31%
kinase still bound, per cent of control (CLK1 (human)): 16%
kinase still bound, per cent of control (PDGFRB (human)): 0%
kinase still bound, per cent of control [7]: 27%
kinase still bound, per cent of control (PIM1 (human) [3]): 9.5%
kinase still bound, per cent of control (RPS6KA5 KD2 (human)): 19%
kinase still bound, per cent of control (DAPK2 (human)): 6.4%
kinase still bound, per cent of control (PIK3CG (human)): 22%
kinase still bound, per cent of control (PIM2 (human) [4]): 1.2%
kinase still bound, per cent of control (DAPK1 (human)): 3.6%
kinase still bound, per cent of control (AAK1 (human)): 4.4%
kinase still bound, per cent of control (RIOK3 (human)): 13%
kinase still bound, per cent of control (CSNK2A1 (human)): 24%
kinase still bound, per cent of control (RPS6KA2 KD2 (human)): 29%
kinase still bound, per cent of control (RIOK1 (human)): 14%
kinase still bound, per cent of control (PIM3 (human)): 10%
Structure (SMILES): O=C1NC(=O)/C(=C/c2c[nH]c(=O)c(-c3ccc(C(=O)Nc4ccc(N5CCNCC5)cc4)cc3)c2)S1
